Assay results: patent US9428456B2, “1-[m-carboxamido(hetero)aryl-methyl]-heterocyclyl-carboxamide derivatives” (Actelion Pharmaceuticals Ltd., priority 2012, dated 2016)

Target: CXCR7 (Homo sapiens (Human), UniProt P25106)
Test: PathHunter CHO-K1 CXCR7 b-arrestin assay (agonistic activity)
Assay type: cell-based
Details: PathHunter CHO-K1 CXCR7 b-arrestin cell line
Protocol: The CXCl12 receptor and CXCR7 agonistic activities of the compounds of formula (I) are determined in accordance with the following experimental method.
The assay is using the PathHunter™ CHO-K1 CXCR7 b-arrestin cell line from DiscoverX. The system is based on the Enzyme Fragment Complementation Technology. Two complementing fragments of the b-galactosidase enzyme are expressed within stably transfected cells. The larger portion of b-gal, termed EA for Enzyme Acceptor, is fused to the C-terminus of b-arrestin 2. The smaller fragment, termed ProLink™ tag, is fused to CXCR7 at the C-terminus. Upon activation, b-arrestin is recruited which forces the interaction of ProLink and EA, allowing complementation of the two fragments of b-gal and the formation of a functional enzyme which is capable of hydrolysing the substrate and generating a chemiluminescent signal.
CHO-K1 CXCR7 b-arrestin cells are detached from culture dishes with a cell dissociation buffer (Invitrogen, #13151-014) and collected in growing medium (F12 HAMS 90% (v/v)/FCS 10% (v/v), Penicilin/streptomycin 1% (v/v)). 5000 cells per well (in 20 μl) are seeded in a 384 well plate (white-walled, clear bottom; BD Falcon #353274). The plate is incubated at 37° C./5% CO2 for 24 hours. Medium is then replaced by 20 μl OPTIMEM (Invitrogen #31985) for 3 to 4 hours. Test compounds are dissolved at 10 mM in DMSO and serially diluted in DMSO to 200× of the final concentration for dose response curves. Compounds are then diluted 1:33.3 in HBSS1×. 5 μl/well of HBSS1×/20 mM HEPES/0.2% BSA are added to the assay plate followed by addition of 5 μl/well of diluted compounds. CXCL12 (Peprotech #300-28A) may be used as a reference agonist. The plate is incubated for 90 minutes at 37° C. 12 μl of detection reagent (Path Hunter Detection Kit, DiscoveRx, #93-0001) is transferred to the assay plate and to the plate is incubated for 1 hour at room temperature. Luminescent signal is read in a microplate reader (FLUOstar Optima, bmg). The calculated EC50 values may fluctuate depending on the daily cellular assay performance. Fluctuations of this kind are known to those skilled in the art. Average EC50 values from several measurements are given as geometric mean values.

Chain of CXCR7 (P25106 whole entry): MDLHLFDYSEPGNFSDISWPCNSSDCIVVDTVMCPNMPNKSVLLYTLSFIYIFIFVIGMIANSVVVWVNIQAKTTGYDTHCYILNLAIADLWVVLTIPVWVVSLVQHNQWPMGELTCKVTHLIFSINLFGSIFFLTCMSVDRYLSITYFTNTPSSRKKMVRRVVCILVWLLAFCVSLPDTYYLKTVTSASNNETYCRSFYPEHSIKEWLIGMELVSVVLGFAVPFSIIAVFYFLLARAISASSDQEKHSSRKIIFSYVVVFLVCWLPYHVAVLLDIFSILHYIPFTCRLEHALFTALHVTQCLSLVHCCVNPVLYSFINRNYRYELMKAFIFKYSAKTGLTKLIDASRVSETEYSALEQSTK
Chain of CXCR7 (P32121 whole entry partner): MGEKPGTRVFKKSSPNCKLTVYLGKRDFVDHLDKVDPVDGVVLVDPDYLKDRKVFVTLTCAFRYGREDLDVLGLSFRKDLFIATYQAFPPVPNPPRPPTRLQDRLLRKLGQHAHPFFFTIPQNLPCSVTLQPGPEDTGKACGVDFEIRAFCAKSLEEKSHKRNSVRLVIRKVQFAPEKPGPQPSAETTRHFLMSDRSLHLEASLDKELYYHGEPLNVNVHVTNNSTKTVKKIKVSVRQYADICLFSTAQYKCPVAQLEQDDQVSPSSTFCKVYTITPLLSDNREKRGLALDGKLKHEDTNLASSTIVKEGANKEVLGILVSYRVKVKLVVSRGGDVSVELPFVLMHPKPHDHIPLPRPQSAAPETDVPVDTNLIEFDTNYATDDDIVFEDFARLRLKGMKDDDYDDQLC

| SMILES | EC50 [nM] |
| --- | --- |
| CCC(c1cccc(NC(=O)c2cccc(C(F)(F)F)n2)c1)N1CCC(C(=O)NC2CCCCC2)CC1 (racemic) [Example 1.308] | 87 |
| Cc1cncc(C(=O)Nc2cccc(CN3CCC(C(=O)NC(C)(C)C)C3)c2)c1 (racemic) [Example 2.096, rac-N-[3-(3-tert-Butylcarbamoyl-pyrrolidin-1-ylmethyl)-phenyl]-5-methyl-nicotinamide] | 28 |
| CC(C)(C)NC(=O)C1CCN(Cc2cccc(NC(=O)Cc3ccc(F)cc3Cl)c2)C1 (racemic) [Example 2.097, rac-1-{3-[2-(2-Chloro-4-fluoro-phenyl)-acetylamino]-benzyl}-pyrrolidine-3-carboxylic acid tert-butylamide] | 37 |
| CC(C)CNC(=O)C1CCN(Cc2cccc(NC(=O)c3cccc(C(F)(F)F)n3)c2)C1 (racemic) [Example 2.098, rac-6-Trifluoromethyl-pyridine-2-carboxylic acid [3-(3-isobutylcarbamoyl-pyrrolidin-1-ylmethyl)-phenyl]-amide] | 193 |
| O=C(Nc1cccc(CN2CCC(C(=O)NC3CCCCC3)C2)c1)c1cccc(C(F)(F)F)n1 (racemic) [Example 2.099, rac-6-Trifluoromethyl-pyridine-2-carboxylic acid [3-(3-cyclohexylcarbamoyl-pyrrolidin-1-ylmethyl)-phenyl]-amide] | 60 |
| O=C(Cc1ccc(F)cc1Cl)Nc1cccc(CN2CCC(C(=O)NC3CCCCC3)C2)c1 (racemic) [Example 2.100, rac-1-{3-[2-(2-Chloro-4-fluoro-phenyl)-acetylamino]-benzyl}-pyrrolidine-3-carboxylic acid cyclohexylamide] | 161 |
| C[C@H]1C[C@@H](C(=O)NC(C)(C)C)CCN1Cc1cccc(NC(=O)c2cccc(C(F)(F)F)n2)c1 (racemic) [Example 2.102, rac-6-Trifluoromethyl-pyridine-2-carboxylic acid [3-((2S*,4S*)-4-tert-butylcarbamoyl-2-methyl-piperidin-1-ylmethyl)-phenyl]-amide] | 4 |
| Cc1cncc(C(=O)Nc2cccc(CN3CC[C@H](C(=O)NC(C)(C)C)C[C@@H]3C)c2)c1 (racemic) [Example 2.103, rac-N-[3-((2S*,4S*)-4-tert-Butylcarbamoyl-2-methyl-piperidin-1-ylmethyl)-phenyl]-5-methyl-nicotinamide] | 17 |
| Cc1cncc(C(=O)Nc2cccc(CN3CC[C@H](C(=O)NC4CCCCC4)C[C@@H]3C)c2)c1 (racemic) [Example 2.104, rac-N-[3-((2S*,4S*)-4-Cyclohexylcarbamoyl-2-methyl-piperidin-1-ylmethyl)-phenyl]-5-methyl-nicotinamide] | 4 |
| Cc1sc(C(=O)Nc2cccc(CN3CCC(C(=O)NC4CCCCC4)CC3)c2)cc1CC(C)C [Example 1.004] | 40 |
| Cc1cc(C(=O)Nc2cccc(CN3CCC(C(=O)NC4CCCCC4)CC3)c2)no1 [Example 1.005] | 18 |
| O=C(Nc1cccc(CN2CCC(C(=O)NC3CCCCC3)CC2)c1)c1ccncn1 [Example 1.006] | 2 |
| O=C(Nc1cccc(CN2CCC(C(=O)NC3CCCCC3)CC2)c1)c1ccc2ccccc2c1 [Example 1.007] | 6 |
| O=C(Nc1cccc(CN2CCC(C(=O)NC3CCCCC3)CC2)c1)c1n[nH]c2ccccc12 [Example 1.008] | 35 |
| COc1ccccc1C(=O)Nc1cccc(CN2CCC(C(=O)NC3CCCCC3)CC2)c1 [Example 1.009] | 17 |
| O=C(Nc1cccc(CN2CCC(C(=O)NC3CCCCC3)CC2)c1)c1cccc2ccncc12 [Example 1.010] | 68 |
| O=C(Cc1ccccc1)Nc1cccc(CN2CCC(C(=O)NC3CCCCC3)CC2)c1 [Example 1.011] | 7 |
| O=C(Nc1cccc(CN2CCC(C(=O)NC3CCCCC3)CC2)c1)c1ccsc1 [Example 1.012] | 4 |
| O=C(Cc1ccccn1)Nc1cccc(CN2CCC(C(=O)NC3CCCCC3)CC2)c1 [Example 1.013] | 20 |

| SMILES | EC50 [nM] |
| --- | --- |
| O=C(Nc1cccc(CN2CCC(C(=O)NC3CCCCC3)CC2)c1)c1ccccc1 [Example 1.014] | 3 |
| O=C(Cc1ccc2ccccc2c1)Nc1cccc(CN2CCC(C(=O)NC3CCCCC3)CC2)c1 [Example 1.015] | 78 |
| CC(C)C(=O)Nc1cccc(CN2CCC(C(=O)NC3CCCCC3)CC2)c1 [Example 1.016] | 121 |
| O=C(Nc1cccc(CN2CCC(C(=O)NC3CCCCC3)CC2)c1)C1CCCC1 [Example 1.017] | 29 |
| O=C(Nc1cccc(CN2CCC(C(=O)NC3CCCCC3)CC2)c1)c1cc(F)cc(F)c1 [Example 1.019] | 2 |
| CC(C)(C)CC(=O)Nc1cccc(CN2CCC(C(=O)NC3CCCCC3)CC2)c1 [Example 1.020] | 25 |
| O=C(Nc1cccc(CN2CCC(C(=O)NC3CCCCC3)CC2)c1)c1nccc2ccccc12 [Example 1.021] | 39 |
| O=C(Nc1cccc(CN2CCC(C(=O)NC3CCCCC3)CC2)c1)c1cncc2ccccc12 [Example 1.022] | 97 |
| COc1cccc(C(=O)Nc2cccc(CN3CCC(C(=O)NC4CCCCC4)CC3)c2)c1 [Example 1.023] | 4 |
| O=C(Cc1cccc(Cl)c1)Nc1cccc(CN2CCC(C(=O)NC3CCCCC3)CC2)c1 [Example 1.024] | 10 |
| O=C(Cc1ccccc1Cl)Nc1cccc(CN2CCC(C(=O)NC3CCCCC3)CC2)c1 [Example 1.025] | 3 |
| Cn1cc(C(=O)Nc2cccc(CN3CCC(C(=O)NC4CCCCC4)CC3)c2)c2ccccc21 [Example 1.026] | 182 |
| O=C(Nc1cccc(CN2CCC(C(=O)NC3CCCCC3)CC2)c1)c1c[nH]c2ccccc12 [Example 1.027] | 42 |
| O=C(Nc1cccc(CN2CCC(C(=O)NC3CCCCC3)CC2)c1)c1coc2ccccc12 [Example 1.028] | 4 |
| Cn1cc(CC(=O)Nc2cccc(CN3CCC(C(=O)NC4CCCCC4)CC3)c2)c2ccccc21 [Example 1.030] | 18 |
| COc1ccc(C(=O)Nc2cccc(CN3CCC(C(=O)NC4CCCCC4)CC3)c2)cc1 [Example 1.031] | 2 |
| CC(C)(C)c1ccc(C(=O)Nc2cccc(CN3CCC(C(=O)NC4CCCCC4)CC3)c2)cc1 [Example 1.032] | 34 |
| O=C(Nc1cccc(CN2CCC(C(=O)NC3CCCCC3)CC2)c1)c1cccc(Cl)c1 [Example 1.033] | 2 |
| O=C(CCc1ccccc1)Nc1cccc(CN2CCC(C(=O)NC3CCCCC3)CC2)c1 [Example 1.034] | 18 |

| SMILES | EC50 [nM] |
| --- | --- |
| COc1ccccc1CC(=O)Nc1cccc(CN2CCC(C(=O)NC3CCCCC3)CC2)c1 [Example 1.035] | 4 |
| O=C(Cc1ccc(Cl)cc1)Nc1cccc(CN2CCC(C(=O)NC3CCCCC3)CC2)c1 [Example 1.037] | 34 |
| O=C(Nc1cccc(CN2CCC(C(=O)NC3CCCCC3)CC2)c1)c1ncc[nH]1 [Example 1.038] | 13 |
| O=C(Nc1cccc(CN2CCC(C(=O)NC3CCCCC3)CC2)c1)c1ccccn1 [Example 1.039] | 1 |
| O=C(Nc1cccc(CN2CCC(C(=O)NC3CCCCC3)CC2)c1)c1cnc[nH]1 [Example 1.040] | 1260 |
| CC(C)Cc1ccc(C(=O)Nc2cccc(CN3CCC(C(=O)NC4CCCCC4)CC3)c2)cc1 [Example 1.041] | 43 |
| COc1ccc(CC(=O)Nc2cccc(CN3CCC(C(=O)NC4CCCCC4)CC3)c2)cc1 [Example 1.042] | 79 |
| O=C(CC1CCCCC1)Nc1cccc(CN2CCC(C(=O)NC3CCCCC3)CC2)c1 [Example 1.043] | 9 |
| O=C(Nc1cccc(CN2CCC(C(=O)NC3CCCCC3)CC2)c1)c1cn[nH]c1 [Example 1.044] | 1240 |
| O=C(CCc1nc2ccccc2[nH]1)Nc1cccc(CN2CCC(C(=O)NC3CCCCC3)CC2)c1 [Example 1.045] | 2490 |
| O=C(Nc1cccc(CN2CCC(C(=O)NC3CCCCC3)CC2)c1)c1ccc[nH]1 [Example 1.046] | 5 |
| COc1cccc(CC(=O)Nc2cccc(CN3CCC(C(=O)NC4CCCCC4)CC3)c2)c1 [Example 1.047] | 17 |
| O=C(Nc1cccc(CN2CCC(C(=O)NC3CCCCC3)CC2)c1)c1cccc2ccccc12 [Example 1.048] | 46 |
| O=C(Nc1cccc(CN2CCC(C(=O)NC3CCCCC3)CC2)c1)c1ccno1 [Example 1.049] | 7 |
| O=C(Nc1cccc(CN2CCC(C(=O)NC3CCCCC3)CC2)c1)c1ccccc1Cl [Example 1.050] | 12 |
| Cn1cnc(C(=O)Nc2cccc(CN3CCC(C(=O)NC4CCCCC4)CC3)c2)c1 [Example 1.051] | 130 |
| O=C(CC1Cc2ccccc2C1)Nc1cccc(CN2CCC(C(=O)NC3CCCCC3)CC2)c1 [Example 1.052] | 36 |
| O=C(Nc1cccc(CN2CCC(C(=O)NC3CCCCC3)CC2)c1)c1ccncc1 [Example 1.053] | 40 |
